The data set has as its system thrombin generation. Put plainly: Example 3: thrombin generation by calibrated automated thrombogram (CAT) in plasma. In kind it is in vivo, mice. The following applies: eight weeks. The procedure:
Thrombin generation was measured in platelet-poor mice plasma using calibrated automated thrombography (CAT) technique as described in Hemker H C, Giesen P, Al Dieri R, Regnault V, de Smedt E, Wagenvoord R, et al. Calibrated automated thrombin generation measurement in clotting plasma. Pathophysiol Haemost Thromb 2003; 33:4-15. doi:71636. Thrombin generation was activated by mixing 21 μL of diluted plasma (1:1 with BSA5 buffer) with 7 μIL of fluorogenic substrate (Z-Gly-Gly-Arg-AMC, 16.6 mM) and 14 μL of trigger solution containing phospholipids, tissue factor and CaCl2 (4 μM, 1 pM and 16.6 mM, respectively). In the calibration wells, the 14 μL of reagents were replaced with calibrator (102 nM). Immediately after the activation, 5 μL of the mixture was pipetted on paper disks in a flat bottom 96-well polystyrene plate and covered with 40 μL of mineral oil. Fluorescent signals were measured using the Fluoroskan Ascent software (Thermo Labsystems, Helsinki, Finland) and transformed into thrombin concentration as described in Hemker H C, Kremers R. Data management in Thrombin Generation. Thromb Res 2013; 131:3-11. doi:10.1016/j.thromres.2012.10.011. The parameters analyzed included endogenous thrombin potential (ETP), peak thrombin concentration (peak), and lag time.

`CC(C)=CCC/C(C)=C/CC/C(C)=C/CC/C(C)=C/CC/C(C)=C/CC/C(C)=C/CC/C(C)=C/CC1=C(C)C(=O)c2ccccc2C1=O` [MK-7, menaquinone-7]: the thrombin generation entry was “did not affect” (0.03 mg/kg b.w./day) and “did not affect” (10 mg/kg b.w./day).

The values are drawn from patent US11911349B2, “Rapidly improving vascular conditions by administering vitamin K” (NATTOPHARMA AS, priority 2018, dated 2024).
